In PMC7099204, “Geranylated Coumarins From Thai Medicinal Plant Mammea siamensis With Testosterone 5α-Reductase Inhibitory Activity” (Frontiers in Chemistry, 2020):
Where two headings read alike, the source gives them in different places.

Molecular target: T1, testosterone 5α-reductase (Rattus norvegicus, UniProt P24008)
T1 sequence (P24008 1-259): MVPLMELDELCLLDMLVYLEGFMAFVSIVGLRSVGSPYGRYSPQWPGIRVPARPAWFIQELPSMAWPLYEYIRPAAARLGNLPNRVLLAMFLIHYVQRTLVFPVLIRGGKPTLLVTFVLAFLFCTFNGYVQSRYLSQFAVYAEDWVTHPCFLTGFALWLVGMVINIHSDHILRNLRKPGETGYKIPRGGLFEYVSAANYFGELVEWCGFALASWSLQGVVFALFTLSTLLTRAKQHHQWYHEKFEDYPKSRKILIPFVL
Experiment: Assay for testosterone 5α-reductase inhibitory activity (rat liver S9 fractions, HPLC of remaining testosterone)
Type: biochemical
Method: The experiment was performed in accordance with previously reported methods (Matsuda et al., [2001]; Lee et al., [2012]; Koseki et al., [2015]) with slight modifications. In brief, the assay was performed in 48-well microplates (Sumitomo Bakelite Co., Ltd., Tokyo, Japan). The reaction solution was pre-incubated with or without a test sample (5 μL/well, dissolved in DMSO), in a potassium phosphate buffer (40 mM, pH 6.5, 490 μL/well) containing substrate (0.35 nmol of testosterone, Tokyo Chemical Industry Co., Ltd., Tokyo, Japan) and NADPH (10 nmol, Oriental Yeast Co., Ltd., Tokyo, Japan) at room temperature (25°C) for 20 min. The enzymatic reaction was initiated by the addition of rat liver S9 fractions (10 μL/well, dissolved in the phosphate buffer, 20.6 μg/well, Oriental Yeast Co., Ltd., Tokyo, Japan, lot no. 109031513) at 37°C for 30 min. After incubation, the reaction mixture was immediately heated in boiling water for 2 min to stop the reaction. Then the reaction solution of each well was transferred to a microtube and extracted with 500 μL of EtOAc. After the microtube was centrifuged (10,000 rpm, 5 min), an aliquot of each EtOAc phase (300 μL) was transferred into another tube. The solvent in the tube was evaporated and the residue was dissolved in 30 μL of acetonitrile containing an internal standard (I.S.) fludrocortisone acetate (20 μg/mL, Sigma-Aldrich, Co., LLC, St. Louis, USA). […] The 5α-reductase inhibitory activity was determined from the following equation using the peak area ratios (r = testosterone/I.S.). Experiments were performed in triplicate or quadruple, and IC50 values were determined graphically. The 5α-reductase inhibitor finasteride (Tokyo Chemical Industry Co., Ltd., Tokyo, Japan) was used as a reference compound.
Inhibition(%)=[r(T)-r(C)/r(B)-r(C)]× 100
Control (C): enzyme (+), test sample (–); Test (T): enzyme (+), test sample (+); Blank (B): enzyme (–), test sample (+).

[1] = 100 μM, mean ± S.E.M. (N = 3–4), read-out: Inhibition (%)
[2] = 3 μM, mean ± S.E.M. (N = 3–4), read-out: Inhibition (%)
[3] = 10 μM, mean ± S.E.M. (N = 3–4), read-out: Inhibition (%)
[4] = 30 μM, mean ± S.E.M. (N = 3–4), read-out: Inhibition (%)

Row | SMILES | inhibition at 100 µM [1] [%] | inhibition at 3 µM [2] [%] | inhibition at 10 µM [3] [%] | inhibition at 30 µM [4] [%] | other results
1 | CCCC(=O)c1c(O)c2c(c3c([C@@H](O)CC)cc(=O)oc13)OC(C)(CCC=C(C)C)C=C2 (some centres unmarked) [Compound 1, kayeassamin I] | 37.5 ± 11.1 | – | – | – | –
2 | CC[C@H](O)c1cc(=O)oc2c(C(=O)CC(C)C)c(O)c3c(c12)OC(C)(CCC=C(C)C)C=C3 (some centres unmarked) [Compound 2, Mammeasin E] | 89.5 ± 15.8 | 20 ± 9.2 | 30.9 ± 9.3 | 53.9 ± 12.7 | –
3 | CCC(C)C(=O)c1c(O)c2c(c3c([C@@H](O)CC)cc(=O)oc13)OC(C)(CCC=C(C)C)C=C2 (some centres unmarked) [Compound 3, Mammeasin F] | 14.9 ± 5.4 | – | – | – | –
4 | CCCC(=O)c1c(O)c(C/C=C(\C)CCC=C(C)C)c(O)c2c([C@H](CC)OC(C)=O)cc(=O)oc12 [Compound 4, Mammeasin A] | 129 ± 20.9 | 12.6 ± 10.5 | 40.8 ± 12.8 | 53.1 ± 5.2 | –
5 | CC[C@H](OC(C)=O)c1cc(=O)oc2c(C(=O)CC(C)C)c(O)c(C/C=C(\C)CCC=C(C)C)c(O)c12 [Compound 5, Mammeasin B] | 83.7 ± 4.3 | 35.3 ± 6.1 | 39.9 ± 4.2 | 58.8 ± 9.6 | –
6 | CC(C)=CCC/C(C)=C/Cc1c(O)c(C(=O)C(C)C)c2oc(=O)cc3c2c1OC(C)C3 (centres unmarked) [Compound 6, Mammeasin C] | 52.9 ± 22.5 | 3.4 ± 13.1 | 8.8 ± 10 | 17.9 ± 10.6 | –
7 | CCCC(=O)c1c(O)c(C/C=C(\C)CCC=C(C)C)c2c3c(cc(=O)oc13)CC(C)O2 (centres unmarked) [Compound 7, Mammeasin D] | 16.4 ± 5.8 | – | – | – | –
8 | CCCC(=O)c1c(O)c(C/C=C(\C)CCC=C(C)C)c(O)c2c([C@@H](O)CC)cc(=O)oc12 [Compound 8, kayeassamin A] | 20.2 ± 7.9 | – | – | – | –
9 | CCCC(=O)c1c(O)c(CC=C(C)C)c2oc(=O)cc([C@@H](O)CC)c2c1O [Compound 9, Kayeassamin E] | 79.9 ± 12.7 | 2.6 ± 7.1 | 11.5 ± 12.7 | 51.1 ± 12.4 | –
10 | CCC(C)C(=O)c1c(O)c(CC=C(C)C)c2oc(=O)cc([C@@H](O)CC)c2c1O (some centres unmarked) [Compound 10, Kayeassamin F] | 94.6 ± 1.3 | 4.6 ± 1.1 | 41 ± 6.4 | 68.6 ± 3.9 | –
11 | CC[C@H](O)c1cc(=O)oc2c(CC=C(C)C)c(O)c(C(=O)CC(C)C)c(O)c12 [Compound 11, Kayeassamin G] | 62.3 ± 3.2 | 14.4 ± 9.7 | 37.5 ± 6.9 | 61.3 ± 3 | –
12 | CC(C)=CCc1c(O)c(C(=O)CC(C)C)c(O)c2c(-c3ccccc3)cc(=O)oc12 [Compound 17, Mammea A/AA] | – | – | – | – | inhibition at 3 µM: 18.9 ± 7%; inhibition at 10 µM: 32 ± 3.9%; inhibition at 30 µM: 62 ± 2.8%; inhibition at 100 µM: 92.9 ± 5.3%
13 | CC(C)(C)NC(=O)[C@H]1CC[C@H]2[C@@H]3CC[C@H]4NC(=O)C=C[C@]4(C)[C@H]3CC[C@]12C [Finasteride, finasteride, reference compound] | – | – | – | – | inhibition at 0.1 µM: 48.5 ± 10.9%; inhibition at 0.3 µM: 61.8 ± 11.4%; inhibition at 1 µM: 76 ± 9.8%; inhibition at 3 µM: 91.3 ± 13.1%

Now from value to compound, other results behind:

Row | inhibition at 100 µM [1] [%] | inhibition at 3 µM [2] [%] | inhibition at 10 µM [3] [%] | inhibition at 30 µM [4] [%] | SMILES | other results
14 | 38.5 ± 5 | – | – | – | CCC(C)C(=O)c1c(O)c(C/C=C(\C)CCC=C(C)C)c(O)c2c([C@H](CC)OC(C)=O)cc(=O)oc12 (some centres unmarked) [Compound 12, surangin B] | –
15 | 124 ± 9.6 | 28.2 ± 7.7 | 63.6 ± 8.3 | 114 ± 6.7 | CCC(C)C(=O)c1c(O)c(C/C=C(\C)CCC=C(C)C)c(O)c2c([C@@H](O)CC)cc(=O)oc12 (some centres unmarked) [Compound 13, surangin C] | –
16 | 23.3 ± 7.2 | – | – | – | CCC(C)C(=O)c1c(O)c(CC=C(C)C)c2oc(=O)cc(-c3ccccc3)c2c1O (centres unmarked) [Compound 18, mammea A/AB] | –
17 | 41.5 ± 11.4 | – | – | – | CCCC(=O)c1c(O)c(CC=C(C)C)c2oc(=O)cc(-c3ccccc3)c2c1O [Compound 19, Mammea A/AC] | –
18 | 30.3 ± 2.1 | – | – | – | CC(C)=CCc1c(O)c(C(=O)C(C)C)c(O)c2c(-c3ccccc3)cc(=O)oc12 [Compound 20, Mammea A/AD] | –
19 | 38.3 ± 3.8 | – | – | – | CC(C)CC(=O)c1c2c(c3oc(=O)cc(-c4ccccc4)c3c1O)C=CC(C)(C)O2 [Compound 24, Mammea A/AA cyclo D] | –
20 | 6.7 ± 4.5 | – | – | – | CCC(C)C(=O)c1c2c(c3oc(=O)cc(-c4ccccc4)c3c1O)C=CC(C)(C)O2 (centres unmarked) [Compound 25, Mammea A/AB cyclo D] | –
21 | 32 ± 1.9 | – | – | – | CCCC(=O)c1c2c(c3oc(=O)cc(-c4ccccc4)c3c1O)C=CC(C)(C)O2 [Compound 26, Mammea A/AC cyclo D] | –
22 | 40.7 ± 18.1 | – | – | – | CCCc1cc(=O)oc2c3c(c(C(=O)C(C)CC)c(O)c12)OC(C)(C)C=C3 (centres unmarked) [Compound 27, Mammea B/AB cyclo D] | –
23 | 27.3 ± 2 | – | – | – | CCCC(=O)c1c2c(c3oc(=O)cc(CCC)c3c1O)C=CC(C)(C)O2 [Compound 28, Mammea B/AC cyclo D] | –
24 | 31.9 ± 3.9 | – | – | – | CCCC(=O)c1c(O)c2c(c3c(C(CC)OC(C)=O)cc(=O)oc13)OC(C)(C)C=C2 (centres unmarked) [Compound 29, Mammea E/BC cyclo D] | –
25 | 37.1 ± 4 | – | – | – | CC[C@H](O)c1cc(=O)oc2c3c(c(C(=O)CC(C)C)c(O)c12)OC(C)(C)C=C3 [Compound 31, deacetylmammea E/AA cyclo D] | –
26 | 31.9 ± 8.8 | – | – | – | CCC(C)C(=O)c1c(O)c2c(c3c([C@@H](O)CC)cc(=O)oc13)OC(C)(C)C=C2 (some centres unmarked) [Compound 32, deacetylmammea E/BB cyclo D] | –
27 | 40.8 ± 4.1 | – | – | – | CCCC(=O)c1c(O)c2c(c3c([C@@H](O)CC)cc(=O)oc13)OC(C)(C)C=C2 [Compound 33, deacetylmammea E/BC cyclo D] | –
28 | 57 ± 15.7 | 13.8 ± 6.7 | 21.6 ± 10.3 | 62.8 ± 18.1 | CC(C)CC(=O)c1c2c(c3oc(=O)cc(-c4ccccc4)c3c1O)CC(C(C)(C)O)O2 (centres unmarked) [Compound 34, mammea A/AA cyclo F] | –
29 | 54.8 ± 23.2 | 4.2 ± 6.1 | 18.4 ± 6.9 | 32.5 ± 6 | CCCC(=O)c1c2c(c3oc(=O)cc(-c4ccccc4)c3c1O)CC(C(C)(C)O)O2 (centres unmarked) [Compound 35, mammea A/AC cyclo F] | –
